Assay results: US7456291B2, “Use of a vitamin combination for the treatment of primary headaches” (priority 2000, dated 2008)
Where two headings read alike, the source gives them in different places.

Experiments:
[1] = tested on: primary headaches (common, classical, complicated migraine, cluster headache); test: Clinical experimentation in primary headache forms, overall statements; details: single agent; for effectiveness in combating the forms of headache considered: systemic administration at the typical dosage used for pellagra
[2] = tested on: primary headaches (common, classical, complicated migraine, cluster headache); details: human, in vivo
complicated migraine = test: Clinical cases: treatment of complicated migraine; type: in vivo, human patient; details: 2nd series, 2nd case; 50 mg nicotinamide alone orally twice a day
[3] = tested on: classical migraine (migraine with an aura); test: Clinical cases: treatment of classical migraine (migraine with an aura); type: in vivo, human patient; details: 2nd series, 50 mg nicotinamide alone orally twice a day
Protocol: 1st case—a person with a classical migraine (or a migraine with an aura). The patient had been suffering from classical migraine symptoms for 30 years. Initially, the symptoms were located in the right temporal region and later spread to the top and to the left temple with characteristic pulsations, accompanied by photophobia, vertigo and buzzing ears. The attacks lasted for about 10 days on a monthly basis.
Later, during a migraine attack, the patient started a treatment based on 50 mg of nicotinamide+2.5 mg of riboflavin taken orally twice a day. […] During this period the patient had completely suspended the old therapy. They continued with the new treatment, according to the present invention, for another 7 days to then temporarily suspend it. Later on, the dosage was halved for 10 days a month for preventive purposes.
1st case—person one with a classical migraine (or migraine with an aura). The patient had been suffering from classical migraine symptoms for 15 years and had photophobia, flashing scotoma and vertigo. […] The symptoms were located on the right side, occurred about twice a month and lasted a week, on average. When suffering from migraines the patient could not perform any activity. The acute episodes were preceded by photophobia, buzzing ears and visual disorders (scotoma). […]

[4] = tested on: common migraine (migraine without an aura); test: Clinical cases: treatment of common migraine (migraine without an aura); type: in vivo, human patient; details: 2nd series, 3rd case; 50 mg nicotinamide alone orally twice a day
cluster headaches = test: Clinical cases: treatment of cluster headaches; type: in vivo, human patient; details: 2nd series, 4th case; 50 mg nicotinamide alone orally twice a day
Protocol: 4th case—a person with cluster headaches. The patient had been suffering from nocturnal headaches for about 15 years. The headaches started about 3 hours after sleep onset and presented a left orbital pain, lachrymation, nasal congestion and an oedema of the left cheek.
They continued with the therapy for another 15 days and then the dosage was halved and treatment continued for 15 days a month.
4th case—a person with cluster headaches. The patient suffered from cluster headaches that made them wake up in the night with lacerating head pains. The pains were accompanied by lachrymation and rhinorrhea.

O=C(O)c1cccnc1 [nicotinic acid, 3-pyridincarboxylic acid]
effectiveness in combating the forms of headache considered [1]: not very effective
secondary reactions reported for high doses [2]: does not lead to the secondary reactions

NC(=O)c1cccnc1 [nicotinamide]
time until the problem was attenuated (complicated migraine): 6 days
time until migraine symptoms attenuated ([3]; 1st case one): 5 days
complete disappearance of migraine symptoms ([3]; 1st case): did not disappear completely
time until the migraine returned (lesser intensity) under continued treatment ([3]; 1st case): about 10 days
effectiveness in combating the forms of headache considered [1]: not very effective
secondary reactions reported for high doses ([1]; systemic administration in doses well below those for hypercholesterolemy): does not lead to the secondary reactions
time until the migraine was partially attenuated [4]: about 5 days
time until the headaches attenuated (cluster headaches): 5 to 6 days
